In a melting point compilation (Tetko et al.; mined from patent text by program, amines drawn as free bases though some values may be those of a salt):

| Structure (SMILES) | melting point |
| --- | --- |
| O=C(/C=C/C=C(c1ccc(C(F)(F)F)cc1)c1ccc(C(F)(F)F)cc1)Nc1cccc2cnccc12 | 164 to 166 °C |
| CC(=O)On1c(=N)n[n+]([O-])c2ccccc21 | 194 to 196 °C |
| CSc1nc2c(Cl)cc(Cl)c([N+](=O)[O-])c2s1 | 130 to 132 °C |
| CC(C)C=C(C=NO)c1ccccc1 | 107 to 110 °C |
| c1cn(CCCc2ccc(OCc3coc(-c4ccc(OCc5ccc6c(c5)OCO6)cc4)n3)cc2)cn1 | 124 to 125 °C |
| CCNS(=O)(=O)Cc1ccc(N)cc1 | 161 to 164 °C |
| O=[N+]([O-])c1cccc(Cn2ccnc2)c1 | 97 to 98 °C |
| CNc1cc(F)ccc1C(=O)O | 180 to 181 °C |
| COc1ccc(CON(CCCBr)S(=O)(=O)c2ccc(C)cc2)cc1 | 89.5 to 91.5 °C |
| CCN(CC)C(=O)c1ccc(S(=O)(=O)N(CC)CC)o1 | 56.4 °C |
| Cc1cnc2c(NC(=O)c3c(Cl)cccc3Cl)cccc2c1-n1ccnc1 | 224 to 228 °C |
| COc1ccccc1N1CCN(C(=O)N(C)c2cc(C)c(C)nc2OC)CC1 | 131 to 132 °C |
| Cc1ccc2c(c1C)N(c1ncnc3cnccc13)CC2 | 248 °C |
| NCC(O)CNC(=O)CCCCCCCCCCCO (configuration not stated) | 119 °C |
| COC(=O)C1CCc2nc(N)sc2C1 (configuration not stated) | 148 to 168 °C |
| Clc1ncc(OCc2ccsc2)cn1 | 73 to 76 °C |
| CCCc1c(OCCCSc2ccc(-c3nnn[nH]3)cc2)ccc(C(C)=O)c1O | 114 to 116 °C |
| O=C(O)CCNC(=O)C1CN(c2ccc(-c3noc(=O)[nH]3)cc2)C(=O)O1 (configuration not stated) | 221 to 223 °C |
| O=C1C(=O)N(c2ccc(Cl)cc2[N+](=O)[O-])C(=O)N1c1cccc(Cl)c1 | 133 °C |
| CCOC(=O)C(C#N)NC(=O)OCc1ccccc1 (configuration not stated) | 111 to 112 °C |
| O=C(O)c1cc2c(c([N+](=O)[O-])c1)OC(C(Cl)(Cl)Cl)OC2C(Cl)(Cl)Cl (configuration not stated) | 211 to 212 °C |
| OCc1cnoc1-c1ccc(OC(F)(F)F)cc1 | 45 to 46 °C |
| CCN1CCC(=O)N(c2cc(Cl)ccc2C)C1=S | 142 to 145 °C |
| CC1(c2cc(NC(=O)Nc3ccc(OCCN4CCOCC4)c4ccccc34)n(-c3ccccc3)n2)CCCCC1 | 147 to 149 °C |
| CCn1nc(OCCCc2ccc(OCCOC)cc2Oc2ncc(C(F)(F)F)cc2Cl)cc1CCC(=O)O | 101 to 103 °C |
| O=c1[nH]c(-c2ccc(CCCl)cc2)cs1 | 226 to 229 °C |

| Structure (SMILES) | melting point |
| --- | --- |
| CCCCCc1cc(OC)c(C2=C[C@H]3CC[C@]2(CO)C3(C)C)c(OC)c1 | 26 to 27 °C |
| CC(C)(C)CC(=O)Nc1ccc([N+](=O)[O-])cc1 | 192 to 194 °C |
| CCCCCCOc1cc(-c2cccc(N)c2)c(OCCCCCC)cc1-c1cccc(N)c1 | 105 to 106 °C |
| O=C(O)c1cc(-c2ccc(OCc3ccccc3)cc2)nn1Cc1ccccc1 | 207 to 208 °C |
| Cc1ccccc1C1c2cc(Cl)ccc2OC(=O)C1C(=O)N(C)Cc1cc(C(F)(F)F)cc(C(F)(F)F)c1 (configuration not stated) | 148 to 149 °C |
| CC(=O)NC(CO)C(O)c1ccc(C=Cc2csc3ccccc23)s1 (configuration not stated) | 144 to 145 °C |
| CCN(CC)CCSC1=C(C#N)C(c2ccc(OC)cc2)(c2cccnc2)C(=O)N1 (configuration not stated) | 133 °C |
| COc1ccnc(-c2cccs2)c1 | 43 to 45 °C |
| CCOC(=O)CCC1CCC2C(C=CC3=CCCc4c3n2c2ccncc42)C1 (configuration not stated) | 112 °C |
| Cc1ccc(-c2nc(C(F)(F)F)nn2-c2ccc(S(N)(=O)=O)cc2)cc1 | 245 to 247 °C |
| C=C(CN(C)C)C(O)c1ncc2c(c1O)COC2(C)c1ccccc1 (configuration not stated) | 178 to 179 °C |
| COc1ccc2c(c1)CCC(C(=O)O)O2 (configuration not stated) | 131 to 135 °C |
| CC(=O)N1CC(=O)N(CCc2ccccc2)C(=O)C1 | 130 °C |
| CCOc1cc2ncc(C#N)c(Nc3ccc4c(=O)[nH][nH]c(=O)c4c3)c2cc1OCC | > 270 °C |
| CCOC(=O)c1cn(-c2ccc(F)c(NC(C)(C)C)n2)c2c(Cl)c(F)c(F)cc2c1=O | 207 to 210 °C |
| CSC(=S)C1(c2ccccn2)CCCS1 (configuration not stated) | 64 °C |
| COc1cccc(CNS(=O)(=O)c2ccc(C(CC3CCCC3)C(=O)Nc3nc4ccc(OC)nc4s3)cc2)c1 (configuration not stated) | 179 to 181 °C |
| C(=Nc1onc2c1CCC2)c1ccccc1 | 166 °C |
| OC(CNCCNc1ccc2[nH]ncc2c1)COc1ccccc1 (configuration not stated) | 150 to 165 °C |
| N#CC(C(=O)c1ccc(-c2nnn[nH]2)cc1)=C1CCCCN1 | > 220 °C |
| O=C(Nc1ccc(-n2nc(C(F)(F)F)cc2C(F)(F)F)cc1)c1cc2cc(F)ccc2[nH]1 | 253 to 255 °C |
| CC(C)(C)c1nc(C=CC(=O)COc2ccccc2)nc(C(C)(C)C)c1O | 98 to 100 °C |
| CCOC(=O)c1c(Nc2cc(F)ccc2[N+](=O)[O-])sc2cc(C)ccc12 | 147 to 149 °C |
| CC(=O)NC[C@H]1CN(c2ccc(N3CCN(C(=S)CN)CC3)c(F)c2)C(=O)O1 | 202 to 204 °C |
| O=C(O)C1=CS[C@@H]2[C@@H]([C@H](O)c3cn4c(n3)SCC4)C(=O)N12 | 152 °C |
| Cc1ccc(C(=O)n2c(C)c(C(C)C(=O)O)c3cc4c(cc32)OCO4)cc1 (configuration not stated) | 172 to 175 °C |

| Structure (SMILES) | melting point |
| --- | --- |
| N#CCOc1ccc(Cl)c(Cl)c1 | 61 to 62 °C |
| NC(=O)N(O)CCNS(=O)(=O)c1ccc2ccccc2c1 | 174 °C |
| Cc1nc2ccccc2n2cnc(C(=O)OC(C)(C)C)c12 | 176 to 177 °C |
| CON=C(c1cc(C)no1)c1ccccc1CON=C(C)c1ccc(Cl)c(Cl)c1 | 84 to 85 °C |
| COC(=O)c1cc(C(=O)OC)cc(-c2cc(C(F)(F)F)cc(C(F)(F)F)c2)c1 | 151 °C |
| CCON=C(CC)C1=C(O)CC(c2ccc(NC(=O)c3ccccc3C)cc2)CC1=O (configuration not stated) | 139 to 140 °C |
| O=C(Cc1ccc2c(c1)Cc1c-2[nH]c(=O)c2nccn12)NCc1ccccc1 | > 260 °C |
| CNS(=O)(=O)c1ccc2c(c1)C=C(C(=O)O)C(C(F)(F)F)O2 (configuration not stated) | 208 to 209 °C |
| CSc1nc(NN)c(C#N)c(N2CCc3ccccc3CC2)n1 | > 200 °C |
| CCCCC/C(=C\C=C\C(=O)Oc1ccc([N+](=O)[O-])cc1)c1ccc(OC)cc1 | 46 to 47 °C |
| CSc1ccc(NC2=C(C#N)CSC2)c([N+](=O)[O-])c1 | 141 to 142 °C |
| CC(=O)NNc1ccc(N2C(=S)SCC2(O)c2ccccc2)cc1 (configuration not stated) | 80 to 84 °C |
| COC(=O)CCC#Cc1ccccc1[N+](=O)[O-] | 44 to 46 °C |
| O=C(CCCI)Nc1ccccc1 | 138 to 139 °C |
| O=C1c2cc3nnn(Cc4cccc(F)c4)c(=O)c3cc2OC2CCCN12 (configuration not stated) | 183 to 185 °C |
| CCCCOc1ccc(S(C)(=O)=O)cc1C(=O)Nc1c(C(N)=O)nn(CCN2CCOCC2)c1CC | 182 to 185 °C |
| CN1C(=O)C(C(=O)Nc2ccc(Oc3nc4ccc(Cl)cc4s3)cc2)C(=O)N(C)C1=S | 213 to 215 °C |
| Cc1c(-c2ccccc2)[nH]c(=O)n1C1CCN(Cc2cccc(I)c2)CC1 | 269 to 271 °C |
| CS(=O)(=O)c1ccc(-c2cnn(CC(F)(F)F)c(=O)c2C2=CCCCC2)cc1 | 75 to 81 °C |
| O=C(O)c1cnc2c(NC(=O)c3c(Cl)cccc3Cl)cccc2c1 | > 250 °C |
| CCOC(C[C@@H](CO)Cn1cnc2c(Cl)nc(N)nc21)OCC | 156 to 158 °C |
| Nc1cc(N2CC(c3cccs3)OC2=O)ccn1 (configuration not stated) | 151 to 153 °C |
| Cc1nn(-c2cc(OS(C)(=O)=O)c(Cl)cc2F)c(C)c1C | 123 to 125 °C |
| O=C(COc1ccccc1)NC1C(=O)N(C(O)(Cc2ccccc2)C(=O)O)C1CI (configuration not stated) | 159 to 160 °C |
| Cc1cccc(Cl)c1NS(=O)(=O)c1n[nH]c(NC=O)n1 | 291 to 300 °C |
| Clc1ccc(Oc2ccc(N3CCNCC3)nc2)cc1 | 98 to 100 °C |

| Structure (SMILES) | melting point |
| --- | --- |
| CC(=O)c1ccc2c(c1)CCC1(CC2)CC1 | 56 to 58 °C |
| Cn1ncc(C(=O)NC2COC2)c1C(=O)Nc1ccn2nc(-c3ccccc3)nc2c1 | > 250 °C |
| O=C(O)c1cc2ccccc2n1S(=O)(=O)c1cccc(Cl)c1 | 216 to 217 °C |
| CC(C)c1cc(C(=O)O)sc1C(C)C | 149 to 151 °C |
| COc1cc(N2CCN(c3c(C)c(C)c4c(c3C)CC(C)(C)O4)CC2)ccc1F | 152 to 155 °C |
| O=C(Nc1ccc(C(F)(F)F)cc1)C(Cl)=NNc1ccc(Cl)cc1 | 167 to 168 °C |
| Cc1nn(-c2ccccn2)c2nc3ccccc3c(C#N)c12 | 210 to 211 °C |
| O=c1c2ccccc2nc(-c2cc(-c3ccc(Cl)cc3)c(N3CCOCC3)s2)n1-c1ccccc1 | 229 to 230 °C |
| CC(=O)N1CCC(COCc2cc(C(F)(F)F)cc(C(F)(F)F)c2)(c2ccccc2)CC1 | 64 to 65 °C |
| CC(C)Oc1cccc(CC(=O)N2CCC(CCN3CCC(C(=O)c4nc5ccccc5n4Cc4ccc(F)cc4)CC3)(c3ccc4c(c3)OCO4)C2)c1 (configuration not stated) | 73 to 76 °C |
| CN1CCC(c2c[nH]c3ccc(NC(=O)c4ccc(F)s4)nc23)CC1 | 244 to 245 °C |
| COC(=O)c1sc2cncc(Oc3ccc(Cl)cc3)c2c1N | 194 to 196 °C |
| O[C@H]1CSC(c2ccccc2)=N[C@@H]1c1ccccc1 (racemic) | 142 °C |
| N#Cc1ccc(C(=O)Nc2cc(C(=O)NCc3ccccc3)ccn2)cc1 | 180 to 181 °C |
| COc1ccc(O)c(CN2CCN(C(=S)SC)CC2)c1 | 112 °C |
| Cc1nc(-c2cnccn2)no1 | 100 to 104 °C |
| CNC(=S)NCCSCc1c[nH]cn1 | 96 to 98 °C |
| Cc1cc(-c2cc(C(F)(F)F)n3ncc(C(=O)Nc4cccc(S(=O)(=O)NC5CC5)c4)c3n2)ccc1C(F)(F)F | 201 °C |
| COc1ccc(CNC(N)=O)cc1OC | 172 to 173 °C |
| COc1ccc2c(c1)C(=C1CCN(C)CC1)c1ccccc1C=C2 | 112 to 114 °C |
| O=C1CCC(=O)N1c1ccc(N2CCN(c3ccc(OCC(O)(Cn4cncn4)c4ccc(Cl)cc4Cl)cc3)CC2)cc1 (configuration not stated) | 212 to 216 °C |
| OCC1=C(c2cc3ccccc3s2)N2CCN=C2S1 | 138 to 140 °C |
| O=C1NC(Cc2ccccc2)C(C(=O)O)O1 (configuration not stated) | 172 to 174 °C |
| OCC(O)(Cn1cncn1)c1ccc(F)cc1F (configuration not stated) | 99 to 100 °C |
